In patent US20210380548A1, “Fused [1,2,4]Thiadiazine Derivatives Which Act as KAT Inhibitors of the MYST Family” (CTxT Pty Limited, priority 2017, published 2021):

Key:
TIP60-KAT5 [1] = target: T1, TIP60-KAT5 (Homo sapiens, UniProt Q92993); assay: Revised Acetyltransferase Biochemical Assay, KAT5; settings: 10 nM KAT5, 1 μM AcCoA, 100 nM histone H4, 90 min
T1 construct: encoding amino acid residues 2 to 461 (Uniprot Q92993-2) of human KAT5 isoform; made in house; host or cells: E. coli BL21 DE3
T1 sequence (Q92993 2-461 isoform Q92993-2): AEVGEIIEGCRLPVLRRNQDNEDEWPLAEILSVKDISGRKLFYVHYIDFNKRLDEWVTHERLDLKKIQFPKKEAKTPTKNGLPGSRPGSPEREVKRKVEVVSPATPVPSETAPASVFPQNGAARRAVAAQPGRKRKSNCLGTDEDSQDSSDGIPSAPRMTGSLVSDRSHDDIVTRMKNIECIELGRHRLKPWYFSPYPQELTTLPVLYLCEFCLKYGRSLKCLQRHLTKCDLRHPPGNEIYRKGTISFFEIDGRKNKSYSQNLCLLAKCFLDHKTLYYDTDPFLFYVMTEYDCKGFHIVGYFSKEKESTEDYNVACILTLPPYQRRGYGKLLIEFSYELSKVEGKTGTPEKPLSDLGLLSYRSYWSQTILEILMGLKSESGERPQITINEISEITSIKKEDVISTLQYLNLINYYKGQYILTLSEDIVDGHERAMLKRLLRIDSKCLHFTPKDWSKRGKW

[2] = test system: histone H3K23 acetylation (KATE mediated) in U2OS cells; assay: Histone H3 Lysine 23 Acetylation Biomarker Assay (U2OS); format: cell-based; settings: Homo sapiens, 96 well, 24 hours incubation
Method: Compounds may be tested for their ability to inhibit acetylation of the histone H3K23 marker, which is KATE mediated, in the following assay:
The cell line U2OS was seeded at a density of 9,000 cells per well in 96 well optical quality tissue culture plates in RPMI medium and 10% foetal bovine serum, and allowed to adhere for 24 hours under standard culture conditions (37 degree Celsius, 5% CO2). At the end of this period the medium was aspirated. Compound dilutions prepared in DMSO were added to medium, with negative control wells reserved for treatment with DMSO only and 100% inhibition positive controls receiving a potent inhibitor compound (e.g. cas 2055397-28-7, benzoic acid, 3-fluoro-5-(2-pyridinyl)-, 2-[(2-fluorophenyl)sulfonyl]hydrazide) (Baell, J., Nguyen, H. N., Leaver, D. J., Cleary, B. L., Lagiakos, H. R., Sheikh, B. N., Thomas. T. J., Aryl sulfonohydrazides, WO2016198507A1, 2016) at 10 μM concentration and 200 μL transferred to the cells. After incubation for 24 hours, the cells were fixed with 3.7% formaldehyde in PBS for 20 minutes at room temperature, washed (5×5 minutes) with phosphate buffer saline containing 0.1% Tween 20 and blocked with Odyssey blocking buffer (LI-COR, Lincoln, Nebr.) containing 0.1% TritonX100. Anti-H3K23ac specific antibody (Abcam ab177275) in Odyssey blocking buffer containing 0.1% Tween 20 was added and incubated for 16 hours at 4 degree Celsius. After washing (as above), a secondary antibody labelled with Alexa647 dye (LifeTechnologies) and Hoechst 33342 (1 μg/mL, SigmaAldrich) were added for 1 hour incubation. Plates were washed as previously and read on a PerkinElmer Phenix high content imaging platform. Using a Columbus image analysis pipeline, individual nuclei were located by Hoechst 33342 stain and the acetylation level was calculated from the Alexa647-related intensity in the same area. The resulting mean intensity per cell was directly converted to percent inhibition relative to controls on the same plate and the data fitted against a four-parameter logistic model to determine the 50% inhibitory concentration (IC50).

HBO-KAT7 [3] = target: T2, HBO-KAT7 (Homo sapiens, UniProt O95251); assay: Acetyltransferase biochemical assay (AlphaScreen), KAT7; settings: Table 3 (HBO-KAT7); 0.4 μM Acetyl coenzyme A, histone H3.1, 40 nM enzyme
T2 construct: encoding amino acid residues 325 to 611 (Uniprot 095251-1) of human KAT7; made in house; host or cells: E. coli BL21 DE3 RIL
T2 sequence (O95251 with tags, fused parts or gaps): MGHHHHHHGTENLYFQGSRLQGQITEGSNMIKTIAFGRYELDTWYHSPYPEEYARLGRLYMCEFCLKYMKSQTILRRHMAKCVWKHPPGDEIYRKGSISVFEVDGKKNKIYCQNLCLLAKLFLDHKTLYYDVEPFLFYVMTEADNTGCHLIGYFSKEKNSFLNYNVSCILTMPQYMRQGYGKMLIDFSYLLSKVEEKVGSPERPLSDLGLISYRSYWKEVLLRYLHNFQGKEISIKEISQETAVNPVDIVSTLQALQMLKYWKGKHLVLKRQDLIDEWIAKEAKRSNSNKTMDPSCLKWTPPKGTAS

HBO-KAT7 [4] = target: T2, HBO-KAT7; assay: Revised Acetyltransferase Biochemical Assay, KAT7; settings: Table 9 (HBO-KAT7), 1 μM Acetyl coenzyme A
TIP60-KAT5 [5] = target: T1, TIP60-KAT5; assay: Acetyltransferase biochemical assay (AlphaScreen), KAT5; settings: Table 1 (TIP60-KAT5); 0.4 μM Acetyl coenzyme A, histone H4, 10 nM enzyme
MOZ-KAT6A [6] = target: T3, MOZ-KAT6A (Homo sapiens, UniProt Q92794, A567V); assay: Revised Acetyltransferase Biochemical Assay, KAT6A; settings: Table 8 (MOZ-KAT6A), 1 μM Acetyl coenzyme A
T3 construct: encoding amino acid residues 507 to 778 (Uniprot Q92794-1) of human KAT6A; made in house; host or cells: E. coli BL21 DE3
T3 sequence (Q92794 507-778 A567V limits assumed): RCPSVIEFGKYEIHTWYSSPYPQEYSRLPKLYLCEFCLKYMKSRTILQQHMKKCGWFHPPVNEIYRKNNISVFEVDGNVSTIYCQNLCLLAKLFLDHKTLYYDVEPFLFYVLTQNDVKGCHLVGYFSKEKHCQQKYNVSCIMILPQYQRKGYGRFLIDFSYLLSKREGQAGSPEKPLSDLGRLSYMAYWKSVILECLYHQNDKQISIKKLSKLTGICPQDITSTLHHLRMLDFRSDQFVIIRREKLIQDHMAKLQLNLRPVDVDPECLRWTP

MOF-KAT8 [7] = target: T4, MOF-KAT8 (Homo sapiens, UniProt Q9H7Z6); assay: Revised Acetyltransferase Biochemical Assay, KAT8
T4 sequence (Q9H7Z6 177-447): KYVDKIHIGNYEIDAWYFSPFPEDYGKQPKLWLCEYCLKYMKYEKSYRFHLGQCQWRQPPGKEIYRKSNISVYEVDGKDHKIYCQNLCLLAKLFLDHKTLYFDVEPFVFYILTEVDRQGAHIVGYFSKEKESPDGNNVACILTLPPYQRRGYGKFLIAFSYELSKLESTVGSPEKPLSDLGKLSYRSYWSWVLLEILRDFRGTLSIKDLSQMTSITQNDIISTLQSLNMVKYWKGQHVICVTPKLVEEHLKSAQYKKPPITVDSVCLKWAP

MOZ-KAT6A [8] = target: T3, MOZ-KAT6A; assay: Acetyltransferase biochemical assay (AlphaScreen), KAT6A; settings: Table 2 (MOZ-KAT6A); 10 μM Acetyl coenzyme A, histone H3.1, 5 nM enzyme
[9] = test system: histone H2A.Z Lysine 7 acetylation (TIP60 mediated) in U2OS cells; assay: H2A.Z Lysine 7 Acetylation Biomarker Assay (384-well, U2OS); format: cell-based; settings: Homo sapiens, serum free medium, 24 hours incubation
Method: Compounds may be tested for their ability to inhibit the histone H2A.Z Lysine 7 acetylation marker (which is TIP60 mediated) in the following assay:
The cell line U2OS was seeded at a density of 3,000 cells per well in 384-well optical quality tissue culture plates in RPMI medium supplemented with 10% foetal bovine serum and 10 mM Hepes. The cells were allowed to adhere for 24 hours under standard culture conditions (37 degree Celsius, 5% CO2). At the end of this period the cells were washed with serum free medium. […] After incubation for 24 hours, the cells were fixed with 4% formaldehyde in PBS for 15 minutes at room temperature, washed with phosphate buffer saline and blocked with blocking buffer containing 0.2% TritonX100 and 2% BSA. Anti-H2A.ZK7ac specific antibody (Abcam) in blocking buffer was added and incubated overnight at 4 degree Celsius. After washing, a secondary antibody labelled with AlexaFluor 488 dye (ThermoFisher) and Hoechst 33342 (1 μg/mL, Life Technologies) were added for 2 hours incubation at room temperature. Plates were washed and read on a PerkinElmer Opera HCS high content imaging platform. Using a Columbus image analysis pipeline, individual nuclei were located by Hoechst 33342 stain and the acetylation level was calculated from the AlexaFluor 488-related intensity in the same area. The resulting mean intensity per cell was converted to percent inhibition relative to controls on the same plate and the data fitted against a four-parameter logistic model to determine the 50% inhibitory concentration (IC50).

MOF-KAT8 [10] = target: T4, MOF-KAT8; assay: Acetyltransferase biochemical assay (AlphaScreen), KAT8; settings: Table 4 (MOF-KAT8); 0.4 μM Acetyl coenzyme A, histone H4, 20 nM enzyme
[11] = test system: histone H3 Lysine 14 acetylation (HBO1 mediated) in U2OS cells; assay: Histone H3 Lysine 14 Acetylation Biomarker Assay (384-well, U2OS); format: cell-based; settings: Homo sapiens, serum free medium, 24 hours incubation
Method: Compounds may be tested for their ability to inhibit acetylation of the histone H3 Lysine 14 (which is HBO1 mediated) marker in the following assay:
The cell line U2OS was seeded at a density of 3,000 cells per well in 384-well optical quality tissue culture plates in RPMI medium supplemented with 10% foetal bovine serum and 10 mM Hepes. The cells were allowed to adhere for 24 hours under standard culture conditions (37 degree Celsius, 5% CO2). At the end of this period the cells were washed with serum free medium. Compound dilutions prepared in DMSO were added to the serum free medium, with negative control wells reserved for treatment with DMSO only and 100% inhibition positive controls receiving a potent inhibitor compound (e.g. (Z)-4-fluoro-N-((3-hydroxyphenyl)sulfonyl)-5-methyl-[1,1′-biphenyl]-3-carbohydrazonic acid) at 10 μM concentration. After incubation for 24 hours, the cells were fixed with 4% formaldehyde in PBS for 15 minutes at room temperature, washed with phosphate buffer saline and blocked with blocking buffer containing 0.2% TritonX100 and 2% BSA. Anti-H3K14ac specific antibody (Cell Signalling Technologies) in blocking buffer was added and incubated overnight at 4 degree Celsius. After washing, a secondary antibody labelled with AlexaFluor 488 dye (ThermoFisher) and Hoechst 33342 (1 μg/mL, Life Technologies) were added for 2 hours incubation at room temperature. Plates were washed and read on a
PerkinElmer Opera HCS high content imaging platform. Using a Columbus image analysis pipeline, individual nuclei were located by Hoechst 33342 stain and the acetylation level was calculated from the AlexaFluor 488-related intensity in the same area. The resulting mean intensity per cell was converted to percent inhibition relative to controls on the same plate and the data fitted against a four-parameter logistic model to determine the 50% inhibitory concentration (IC50).

IC50 (TIP60-KAT5 [1]) [nM]	IC50 [2] [nM]	IC50 (HBO-KAT7 [3]) [nM]	IC50 (HBO-KAT7 [4]) [nM]	IC50 (TIP60-KAT5 [5]) [nM]	IC50 (MOZ-KAT6A [6]) [nM]	IC50 (MOF-KAT8 [7]) [nM]	IC50 (MOZ-KAT6A [8]) [nM]	IC50 [9] [nM]	IC50 (MOF-KAT8 [10]) [nM]	IC50 [11] [nM]	SMILES
725	> 10000	2530	840	2800	403	11300					O=C(NCC(O)c1ccccc1OC(F)F)C1=Nc2ccc(I)cc2S(=O)(=O)N1 (centres unmarked) [Example 57, N-(2-(2-(difluoromethoxy)phenyl)-2-hydroxyethyl)-7-iodo-2H-benzo[e][1,2,4]thiadiazine-3-carboxamide 1,1-dioxide]
26100	> 10000	49400		> 125000	417		4000				O=C(NCC(c1ccccc1)c1ncco1)C1=Nc2ccncc2S(=O)(=O)N1 (centres unmarked) [Example 97]
1540			512		29	34500		10900	4200	6520	O=C(NCC(c1cccc(Cl)c1)c1ncco1)C1=Nc2ccc(Cl)cc2S(=O)(=O)N1 (centres unmarked) [Example 162]
781			242		17	34400		2820	29600	2080	O=C(NCC(c1ccc(F)cc1)c1ncco1)C1=Nc2ccc(I)cc2S(=O)(=O)N1 (centres unmarked) [Example 164]
1440			215		41	54300			39800	427	COc1cccc(C(CNC(=O)C2=Nc3ccc(Br)cc3S(=O)(=O)N2)c2ncco2)c1 (centres unmarked) [Example 188, 7-bromo-N-(2-(3-methoxyphenyl)-2-(oxazol-2-yl)ethyl)-2H-benzo[e][1,2,4]thiadiazine-3-carboxamide 1,1-dioxide]
4000			1090		241				40800	4150	CC(O)c1ccc2c(c1)S(=O)(=O)NC(C(=O)NCC(c1ccccc1)c1ncco1)=N2 (centres unmarked) [Example 212, 7-(1-Hydroxyethyl)-N-(2-(oxazol-2-yl)-2-phenylethyl)-2H-benzo[e][1,2,4]thiadiazine-3-carboxamide 1,1-dioxide]
1460		1740	1190		265			32100	22500	1290	O=C(NCC(c1cccc(OCC2CC2)c1)c1ncco1)C1=Nc2ccc(I)cc2S(=O)(=O)N1 (centres unmarked) [Example 217, N-(2-(3-(Cyclopropylmethoxy)phenyl)-2-(oxazol-2-yl)ethyl)-7-iodo-2H-benzo[e][1,2,4]thiadiazine-3-carboxamide 1,1-dioxide]
5120			1460		447	> 125000		> 40000		> 40000	O=C(NCC(CO)c1ccccc1)C1=Nc2ccc(Cl)cc2S(=O)(=O)N1 (centres unmarked) [Example 225, 7-Chloro-N-(3-hydroxy-2-phenylpropyl)-2H-benzo[e][1,2,4]thiadiazine-3-carboxamide 1,1-dioxide]
3730			1930		75	> 125000		> 40000		24400	COCC(CNC(=O)C1=Nc2ccc(Cl)cc2S(=O)(=O)N1)c1ccccc1 (centres unmarked) [Example 226, 7-Chloro-N-(3-methoxy-2-phenylpropyl)-2H-benzo[e][1,2,4]thiadiazine-3-carboxamide 1,1-dioxide]
597			686		17	75600			> 125000	19200	COCc1cnn(-c2ccccc2CCNC(=O)C2=Nc3ccc(I)cc3S(=O)(=O)N2)n1 [Example 239, 7-iodo-N-(2-(4-(methoxymethyl)-2H-1,2,3-triazol-2-yl)phenethyl)-2H-benzo[e][1,2,4]thiadiazine-3-carboxamide 1,1-dioxide]
309			134		21	62600		11200		3320	O=C(NCCc1ccccc1-n1cccn1)C1=Nc2ccc(I)cc2S(=O)(=O)N1 [Example 240, N-(2-(1H-pyrazol-1-yl)phenethyl)-7-iodo-2H-benzo[e][1,2,4]thiadiazine-3-carboxamide 1,1-dioxide]
14600			3830		6830				82900	> 40000	O=C(NCC(c1ccccn1)n1cccn1)C1=Nc2ccc(Br)cc2S(=O)(=O)N1 (centres unmarked) [Example 244, N-(2-(1H-Pyrazol-1-yl)-2-(pyridin-2-yl)ethyl)-7-bromo-4H-benzo[e][1,2,4]thiadiazine-3-carboxamide 1,1-dioxide]
